In patent US5618675A, “Methods and compositions for detecting lipopolysaccharides using CAP18 fragments” (Panorama Research, Inc., dated 1997):
Several values for one entry are separate records, joined by “and”; a condition that tells them apart may be missing. Equal values may be shown once.

Legend:
RAW 264.7 cells = type: cell-based, murine; details: for Inhibition of LPS-induced RNI-IC50: LPS-induced (2.5 ng/ml LPS in FIG. 6B)
Description: From the sequence of the CAP18 cDNA, it was apparent that the putative N-terminal peptide of CAP18 was in fact an internal fragment of the CAP18 protein. We therefore tried to reconfirm the original protein sequence. Neutrophil-derived heparin bound cationic proteins were prepared as described above and applied to a C18 reverse phase HPLC (FIG. 1). We sequenced the major peaks. Peaks at fractions 14.5 and 15.2 correspond to defensins MCP1 and MCP2 (Territo et al. (1989) J. Clin. Invest. 84:2017-2019), respectively. Fraction 25.8 is macrophage related protein 14 (MRP14) (Odink et al. (1987) Nature 330:80-82). The fraction at 20.3 minutes corresponds to a fragment of CAP18 of approximately 4-5 kD. […] The murine macrophage cell line RAW 264.7 (obtained from ATCC) and thioglycolate-elicited murine peritoneal exudate cells are used to produce RNI. Cells are cultured at 1×10^6 /ml. in RPMI-1640 +2.5% FCS in 24 well plates in the presence or absence of different concentrations of LPS or murine rlFNγ. After 24 hr. incubation at 37° C. the cell free supernatant is collected and tested for the presence of RNI. Accumulation of nitrite in the medium is measured by a colorimetric assay based on the Griess reaction (Green et al. (1982) Anal. Biochem. 126:11) using sodium nitrite as standards. Sample (50 μl) is mixed with 50 μl of Griess reagent (1% sulfanilamide, 0.1% naphthalene diamine dihydrochloride, 2.5% H3 PO4) and after 10 min. at room temperature absorbance is read at 570 nm.

[1] = system: Salmonella minnesota ReLPS sensitized sheep erythrocytes; experiment: LPS hemagglutination assay (MAC); type: binding
Description: For hemagglutination assays, erythrocytes were sensitized with LPS as follows. One ml of 1% erythrocyte suspension (human 0 type, C3H/HeN mouse or sheep) was mixed with 0.2 ml of LPS solution and incubated at 37° C. for 30 min, followed by washing with phosphate buffered saline (PBS), and then the concentration of suspension was adjusted to 1.0%. In the case of S-LPS, the solution was heated at 100° C. for 1 hour before sensitization of erythrocytes. […] Activity of CAP was expressed as a minimum agglutinating concentration (MAC) of CAP. According to the method of Kirikae et al. (1986) Microbiol. Immunol. 30:269-274, 50 μl of 2-fold serial dilution of Re-LPS was added to 50 μl of 1.0% rabbit erythrocyte suspension, and incubated at 37° C. for 3, hour. Minimum agglutinating concentration of Re-LPS was expressed as 1 HA unit.

Salmonella typhimurium = experiment: Antibacterial CFU assay; details: for anti-bacterial activity (CFU), words: FIG. 6D; for effect on CFU at high concentrations alone and in various combinations: FIG. 6F
Salmonella minnesota Re = experiment: Antibacterial CFU assay; details: FIG. 6C
[2] = system: thioglycolate-stimulated murine peritoneal macrophages; experiment: LPS-induced tissue factor generation by macrophages; type: cell-based; details: peptide 1 μg/ml; 6 hr; FIG. 12
Description: […] Cells were cultured for 6 hours prior to assay of tissue factor by clotting assay.
[…] Production of tissue factor after 6 hr. was measured by clotting assay. […] In the absence of LPS no tissue factor is synthesized by these cells.

purified human factor X [3] = target: T1, purified human factor X (human, UniProt P00742); experiment: cell-based or functional assay
purified human factor Xa = purified human factor Xa (human, UniProt P00742); experiment: cell-based or functional assay
purified human factor X [4] = target: T1, purified human factor X; experiment: cell-based or functional assay; remark: listed apart in the source
cells = experiment: Effect of CAP-37 on LPS-induced tissue factor generation; type: cell-based; details: for Tissue factor, figure in parentheses (relative to control = 1.0) / Tissue Factor / Activity: CAP-37 15 HA; for Activity: LPS alone = 100
Description: Table 6 presents a comparison of the effect of RNIP, CAP18, and defensins HP-1 and HP-2 (Territo et al. (1989) J. Clin. Invest. 84:2017-2019) on LPS-induced tissue factor generation. Tissue factor assays were performed as follows. Mouse peritoneal cells were elicted with an intraperitoneal injection of thioglycolate medium and harvested 5-days later by irrigation with pyrogen-free saline. The cells were washed with RPMI 1640 medium, counted and resuspended at a concentration of 1.5-2.0×10^6 /ml in serum-free RPMI medium containing glutamine (0.29 mg/ml), penicillin (50 units/ml) and streptomycin (50/ml). Adherent cells were prepared by incubating 10 ml of a cell suspension (in RPMI 1640 media in sterile culture bottle (Nunclon, 50 ml, Inter Med) for 60 min. at 37° C. in a 5% CO2 atmosphere. The plastic adherent cells were recovered by scraping of the bottle with a sterile rubber policeman. The adherent cells were then washed twice with RPMI media, resuspended in serum-free medium (1×10^6 /ml) in culture tube (Nunc cryotube, Inter Med), and stimulated with graded doses of LPS for 6 hr. at 37° C. in a 5% CO2. The cell suspension was centrifuged and cell pellet was frozen at -80° C. until clotting assays were run.
Veronal buffered saline (VBS) was added to the cell pellet, lysed by 3 cycles of freeze/thaw and sonicated for 10 sec with a hand-held sonicator microbe (Handy Sonic, model UR-20P, Tomy Seiko LTD, Tokyo). Tissue factor activity was tested in modified unactivated partial thromboplastin time (7). One tenth ml of cell lysate (1×10^6 /ml) was preincubated with mouse plasma at 37° C. for 3 min. Then 0.1 ml of 25 mM-CaCl2 which contains phospholipid was added to the mixture and clotting time was measured using a fibrometer (Bio Quest Division, Becton Dickinson, Cokeysville, USA). A standard curve obtained from serial two-fold dilutions of rabbit brain thromboplastic (Simplastin, Ono Pharmaceutical Co.) was used to transpose tissue factor activity into arbitrary tissue factor units (1 μg/ml) suspension of rabbit brain was assigned a value of 1,000 units).
.dagger. LPS was incubated with CAP37 at 37° C. for 2 hours, and
the mixture was added to cells, then cultured for 6 hours.

In the case of “21-1: synthetic rabbit RNIP-derived fragment, amino acids 135-151 of SEQ ID NO:4 (GLRKRLRKFRNKIKEKL)”, the “Inhibition of LPS-induced RNI-IC50” value (RAW 264.7 cells) is reported as > 2 µg/mL and the “Hemagglutination MAC (minimum agglutinating concentration)” value (“Hemagglutination MAC” for short) [1] is reported as > 125 µg/mL.

With “32-1: synthetic rabbit RNIP-derived fragment, amino acids 135-143 of SEQ ID NO:4 (GLRKRLRKF)” the “Inhibition of LPS-induced RNI-IC50” value (RAW 264.7 cells) was > 2 µg/mL, the “anti-bacterial activity (CFU), words” value (Salmonella typhimurium) was “not active” and the “effect on CFU at high concentrations alone and in various combinations” value (Salmonella typhimurium) was “No effect”. The “effect of pretreatment with peptide 32-1 on bacterial killing by peptide 197” value (Salmonella typhimurium; FIG. 6G) was “no inhibition or augmentation”, the “anti-bacterial activity (CFU), words” value (Salmonella minnesota Re) was “not active” and the “inhibition of LPS induced tissue factor” value [2] was “fail to inhibit”. For the same molecule, the “Hemagglutination MAC” value [1] was > 125 µg/mL.

With “34-1: synthetic rabbit RNIP-derived fragment, amino acids 140-166 of SEQ ID NO:4 (LRKFRNKIKEKLKKIGQKIQGLLPKLA)” the “Inhibition of LPS-induced RNI-IC50” value (RAW 264.7 cells) was > 2 µg/mL and the “Hemagglutination MAC” value [1] was > 125 µg/mL.

For “50-1: synthetic rabbit RNIP-derived fragment, amino acids 147-171 of SEQ ID NO:4 (IKEKLKKIGQKIQGLLPKLAPRTDY)”, the “Inhibition of LPS-induced RNI-IC50” value (RAW 264.7 cells) was 0.3 µg/mL and the “Hemagglutination MAC” value [1] was > 125 µg/mL.

In the case of “50-2: synthetic rabbit RNIP-derived fragment, amino acids 147-171 of SEQ ID NO:4 (same range printed as 50-1) (IKEKLKKIGQKIQGLLPKLAPRTDY)”, the “Inhibition of LPS-induced RNI-IC50” value (RAW 264.7 cells) is reported as 0.3 µg/mL, the “anti-bacterial activity (CFU), words” value (Salmonella typhimurium) is reported as “not active” and the “effect on CFU at high concentrations alone and in various combinations” value (Salmonella typhimurium) is reported as “No effect”. The “anti-bacterial activity (CFU), words” value (Salmonella minnesota Re) was “not active”, the “inhibition of LPS induced tissue factor” value [2] was “fail to inhibit” and the “Hemagglutination MAC” value [1] was > 125 µg/mL.

With “52-1: synthetic rabbit RNIP-derived fragment, amino acids 143-169 of SEQ ID NO:4 (FRNKIKEKLKKIGQKIQGLLPKLAPRT)” the “Inhibition of LPS-induced RNI-IC50” value (RAW 264.7 cells) was > 2 µg/mL and the “Hemagglutination MAC” value [1] was > 125 µg/mL.

“52-2: synthetic rabbit RNIP-derived fragment, amino acids 143-170 of SEQ ID NO:4 (FRNKIKEKLKKIGQKIQGLLPKLAPRTD)” was tested, and the “Inhibition of LPS-induced RNI-IC50” value (RAW 264.7 cells) was > 2 µg/mL and the “Hemagglutination MAC” value [1] was > 125 µg/mL.

“52-3: synthetic rabbit RNIP-derived fragment, amino acids 132-171 of SEQ ID NO:4 as printed (EPTGLRKRLRKFRNKIKEKLKKIGQKIQGLLPKLAPRTDY)” was tested, and the “Inhibition of LPS-induced RNI-IC50” value (RAW 264.7 cells) was > 2 µg/mL and the “Hemagglutination MAC” value [1] was > 125 µg/mL.

With “54-1: synthetic rabbit RNIP-derived fragment, amino acids 139-170 of SEQ ID NO:4 (RLRKFRNKIKEKLKKIGQKIQGLLPKLAPRTD)” the “Inhibition of LPS-induced RNI-IC50” value (RAW 264.7 cells) was > 2 µg/mL and the “Hemagglutination MAC” value [1] was > 125 µg/mL.

“54-2: synthetic rabbit RNIP-derived fragment, amino acids 139-171 of SEQ ID NO:4 (RLRKFRNKIKEKLKKIGQKIQGLLPKLAPRTDY)” was tested, and the “Inhibition of LPS-induced RNI-IC50” value (RAW 264.7 cells) was > 2 µg/mL and the “Hemagglutination MAC” value [1] was > 125 µg/mL.

“187: synthetic rabbit RNIP-derived fragment, amino acids 151-171 of SEQ ID NO:4 (LKKIGQKIQGLLPKLAPRTDY) [compound 187]” was tested, and the “activity in hemagglutination and inhibition of LPS-induced RNI” value (RAW 264.7 cells) was “inactive”, the “Inhibition of LPS-induced RNI-IC50” value (RAW 264.7 cells) was > 10 µg/mL and the “Hemagglutination MAC” value [1] was > 125 µg/mL.

For polymyxin B [reference compound], the “inhibition of LPS-induced RNI production” value (RAW 264.7 cells; LPS 5ng/ml, FIG. 4) was “inhibition”.

GLRKRLRKFRNKIKEKLKKIGQKIQGLLPKLA [synthetic rabbit RNIP-derived peptide 36-1] was tested, and the “IC50, RVV activation of factor X to Xa (synthetic substrate)” value (purified human factor X [3]) was 10 µg/ml and 1.9 µM, the “IC50, factor X activation by tissue factor and factor VII (synthetic substrate)” value (purified human factor X [3]) was 100 nM and the IC50, prothrombin activation by factor Xa (synthetic substrate) (prothrombin (factor II)) was < 30 nM. The “IC50, Xa-induced clotting” value (purified human factor Xa) was 2.2 µg/ml and 0.4 µM and the “IC50, Russell Viper Venom induced clotting” value (purified human factor X [4]) was 0.9 µg/ml and 0.2 µM.

GLRKRLRKFRNKIKEKLKKIGQKIQGLLPKLAPRTDY was tested, and the “IC50, RVV activation of factor X to Xa (synthetic substrate)” value (purified human factor X [3]) was 6.7 µg/ml and 1.1 µM, the IC50, prothrombin activation by factor Xa (synthetic substrate) (prothrombin (factor II)) was 50 nM and the “IC50, Xa-induced clotting” value (purified human factor Xa) was 2.7 µg/ml and 0.5 µM. For the same molecule, the “IC50, Russell Viper Venom induced clotting” value (purified human factor X [4]) was 0.7 µg/ml and 0.1 µM.

B1: CAP-37: another cationic peptide CAP37 (azurocidin) (Morgan et al. 1991) (protein, UniProt P20160 27-248, looked up)
Azurocidin: IVGGRKARPRQFPFLASIQNQGRHFCGGALIHARFVMTAASCFQSQNPGVSTVVLGAYDLRRRERQSRQTFSISSMSENGYDPQQNLNDLMLLQLDREANLTSSVTILPLPLQNATVEAGTRCQVAGWGSQRSGGRLSRFPRFVNVTVTPEDQCRPNNVCTGVLTRRGGICNGDGGTPLVCEGLAHGVASFSLGPCGRGPDFFTRVALFRDWIDGVLNNPGP
In the case of B1, the “inhibition of tissue factor generation” value (cells) is reported as “unable to inhibit”, the “Tissue factor, figure in parentheses (relative to control = 1.0)” value (“Tissue factor … (relative to control = 1.0)” for short) (cells; LPS 0.1 μg/ml) is reported as 2.3 and the Tissue Factor (cells; LPS 0.1 μg/ml, LPS alone 412 ± 30) is reported as 383 ± 307 units/1 × 10^5 cells. The Activity (cells; LPS 0.1 μg/ml) was 93.0, the “Tissue factor … (relative to control = 1.0)” value (cells; LPS 1.0 μg/ml) was 3.9 and the Tissue Factor (cells; LPS 1.0 μg/ml, LPS alone 692 ± 27) was 648 ± 343 units/1 × 10^5 cells. For the same molecule, the Activity (cells; LPS 1.0 μg/ml) was 93.6, the “Tissue factor … (relative to control = 1.0)” value (cells; no LPS) was 1.1 and the Tissue Factor (cells; no LPS, control 168 ± 95) was 183 ± 67 units/1 × 10^5 cells.
